Source: US8642801B2 (BHI Limited Partnership, priority 2003, dated 2014)
Where a name gives a salt, the structure may show the parent alone.

Biological target: T1, IAPP (Homo sapiens, UniProt P10997)
T1 construct: which is a 37 amino acid peptide, derived from a larger precursor peptide, called pro-IAPP
T1 sequence (P10997 34-70 limits assumed): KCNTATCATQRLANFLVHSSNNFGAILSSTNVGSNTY
Experiment: MS (electrospray mass spectrometry) binding assay for IAPP
Settings: Table 3C; 20 μM Aβ peptide, 100 μM compound (so in the source)
Excerpt: The ability of a therapeutic compound of the invention to inhibit an interaction between an amyloidogenic protein and a glycoprotein or proteoglycan constituent of a basement membrane can be assessed by an in vitro binding assay, such as that described in U.S. Pat. No. 5,164,295, the contents of which are hereby incorporated by reference. Alternatively, the ability of a compound to bind to an amyloidogenic protein or to inhibit the binding of a basement membrane constituent (e.g., HSPG) to an amyloidogenic protein (e.g., Aβ) can be measured using a mass spectrometry assay where soluble protein, e.g., Aβ, IAPP, β2M is incubated with the compound. A compound which binds to, e.g., Aβ, will induce a change in the mass spectrum of the protein. Exemplary protocols for a mass spectrometry assay employing Aβ and IAPP can be found in the Examples, the results of which are provided in Table 3. The protocol can readily be modified to adjust the sensitivity of the data, e.g., by adjusting the amount of protein and/or compound employed. Thus, e.g., binding might be detected for test compounds noted as not having detectable binding employing less sensitive test protocols.
The test compounds were synthesized and screened by mass spectrometry (“MS”) assays, except for selected compounds which were purchased from a commercial source. The MS assay gives data on the ability of compounds to bind to proteins, in this example, to β-amyloid and IAPP.
In the MS assay for Aβ40, samples were prepared as aqueous solutions (adding 20% ethanol if necessary to solubilize in water), 200 μM of a test compound and 20 μM of solubilized Aβ40, or 400 μM of a test compound and 40 μM of solubilized Aβ40. The pH value of each sample was adjusted to 7.4 (±0.2) by addition of 0.1% aqueous sodium hydroxide. The solutions were then analyzed by electrospray ionization mass spectrometry using a Waters ZQ 4000 mass spectrometer. Samples were introduced by direct infusion at a flow-rate of 25 μL/min within 2 hr. after sample preparation. The source temperature was kept at 70° C. and the cone voltage was 20 V for all the analysis. Data were processed using Masslynx 3.5 software. The MS assay gives data on the ability of compounds to bind to soluble Aβ, whereas the ThT, EM and CD assays give data on inhibition of fibrillogenesis. In Table 3, a blank box means that a value was not determined for that compound in that assay.
The key below describes the codes used in Table 3A to quantify the binding based on the intensity of the absorption.

Compound | MS binding IAPP
O=S(=O)([O-])CC(O)C[N+]12CCC(CC1)CC2 (stereo not shown) [JX, 1-(3-sulfo-2-hydroxypropyl) quinuclidinium, inner salt] | ++ (40-74% binding=(++))
O=S(=O)(O)CCCCCNC1CC2CCC1C2 (stereo not shown) [LQ] | +++ (75-100% binding=(+++))

Biological target: T2, Aβ40 and Aβ42 peptides in plasma and brain of TgCRND8 mice (Homo sapiens, UniProt P05067)
T2 construct: ELISA using Human Aβ40 and Aβ42 Fluorometric ELISA kits from Biosource; from tissue; host or cells: plasma and brain homogenate of TgCRND8 transgenic mice (hAPP transgene)
Experiment: Short term treatment in adult transgenic CRND8 mice overexpressing βAPP: Aβ levels in plasma and brain by ELISA
Format: in vivo, Mouse
Settings: Brain Homogenate Vehicle Group, Day 14; TgCRND8 mice, 250 mg/kg daily
Excerpt: Transgenic mice, […]8, expressing the human amyloid precursor protein (hAPP) develop a pathology resembling Alzheimer's disease. In particular, high levels of Aβ40 and Aβ 42 have been documented in the plasma and the brain of these animals at 8-9 weeks of age, followed by early accumulation of amyloid plaques similar to the senile plaques observed in AD patients. These animals also display progressive cognitive deficits that parallel the appearance of degenerative changes. See, […], et al., J. Biol. Chem. 276, 21562-70 (2001). The short term therapeutic effect of 19 compounds of the invention was studied. […] The following abbreviations are used to designate these animals from the 3rd and 4th generation backcross in the present protocol: TgCRND8-2.B6C3F1(N3); TgCRND8-2.B6C3F1(N4). Baseline animals (Group 1) consisted of naive TgCRND8-2. B6C3F1(N3) at 11±1 weeks of age. These mice were used to determine the Aβ levels in the plasma and brain of naive transgenic animals at the initiation of treatment. […] At the end of the treatment periods, plasma and perfused brains were collected for quantification of Aβ levels. […] Plasma samples were immediately frozen and stored at -80° C. pending analysis. The brains were removed, frozen, and stored at -80° C. awaiting analysis. […] Samples were spun at 15000 g for 20 minutes and the supernatants were transferred to fresh tubes. […] The tubes were vortexed for 30 seconds and frozen at -80° C. […] Samples were thawed at room temperature, sonicated at 80° C. for 15 minutes and frozen again. This cycle was repeated 3 times to ensure homogeneity and samples were returned to -80° C. pending analysis. Aβ levels were evaluated in plasma and brain samples by ELISA using Human Aβ40 and Aβ42 Fluorometric ELISA kits from Biosource (Cat. […] In short, samples were thawed at room temperature, sonicated for 5 minutes at 80° C. (sonication for brain homogenates; no sonication for plasma samples) and kept on ice. Aβ peptides were captured using 100 μl of the diluted samples to the plate and incubated without shaking at 4° C. overnight. The samples were aspirated and the wells were rinsed 4 times with wash buffer obtained from the Biosource ELISA kit. The anti-Aβ40 or anti-Aβ42 rabbit polyclonal antiserum (specific for the Aβ40 or Aβ42 peptide) was added (100 μl) and the plate was incubated at room temperature for 2 hours with shaking. The wells were aspirated and washed 4 times before adding 100 μl of the alkaline phosphatase labeled anti-rabbit antibody and incubating at room temperature for 2 hours with shaking. The plates were then rinsed 5 times and the fluorescent substrate (100 μl) was added to the plate. The plate was incubated for 35 minutes at room temperature and the plate was read using a titer plate reader at an excitation wavelength of 460 nm and emission at 560 nm Compounds were scored based on their ability to modulate levels of Aβ peptides in the plasma and the cerebral soluble/insoluble levels in the brain. Levels of Aβ observed in the plasma and brain of treated animals were normalized using values from vehicle-treated (water) or methylcellulose-treated control groups and ranked according to the strength of the pharmacological effect. Increases in the levels of Aβ peptides are indicated using “+” symbols, while decreases in the levels of Aβ peptides are indicated using “-” symbols. The strongest effects are recorded as “+++” or “- - -” while the weakest are shown as “+” or “-”.

Compound | Brain homogenate Aβ40 Change Insoluble | Brain homogenate Aβ40 Change Soluble
CC1CC(NCCCS(=O)(=O)O)CC(C)(C)C1 (stereo not shown) [ED, 3-(3,3,5-trimethylcyclohexyl)amino-1-1-propanesulfonic acid] | + (increases in the levels of Aβ (relative to untreated control) of 20 to 39% are scored as “+”) | − (Decreases in the levels of Aβ of 5 to 19% are scored as “−”)

Same assay, conditions: Brain Homogenate Vehicle Group, Day 28; TgCRND8 mice, 250 mg/kg daily

Compound | Brain homogenate Aβ40 Change Insoluble | Brain homogenate Aβ40 Change Soluble | Brain homogenate Aβ42 Change Insoluble | Brain homogenate Aβ42 Change Soluble
CC1CC(NCCCS(=O)(=O)O)CC(C)(C)C1 (stereo not shown) [ED, 3-(3,3,5-trimethylcyclohexyl)amino-1-1-propanesulfonic acid] | −− (decreases of 20 to 38% are scored as “− −”) | − (Decreases in the levels of Aβ of 5 to 19% are scored as “−”) | − (Decreases in the levels of Aβ of 5 to 19% are scored as “−”) | − (Decreases in the levels of Aβ of 5 to 19% are scored as “−”)

Biological target: T1, IAPP
Experiment: MS (electrospray mass spectrometry) binding assay for IAPP
Settings: Table 3B; 30 μM Aβ peptide, 150 μM compound (so in the source)

MS binding IAPP | Compound
++ (40-59% binding=(++)) | N[C@@H](Cc1ccccc1)C(=O)NCCS(=O)(=O)O [KT]
++ (40-59% binding=(++)) | N[C@@H](Cc1ccccc1)C(=O)NCCCS(=O)(=O)O [KN]

Further lines, the molecule ahead of its results:

Compound | MS binding IAPP
CC(C)CCNCCC(C)S(=O)(=O)O (stereo not shown) [KH, 4-[(3-methylbutyl)amino]-2-butanesulfonic acid] | ++ (40-59% binding=(++))
CCNCCC(C)S(=O)(=O)O (stereo not shown) [JQ, 4-(ethylamino)-2-butanesulfonic acid, sodium salt] | +++ (60-100% binding=(+++))
O=S(=O)(O)CC(O)CNC1C2CC3CC(C2)CC1C3 (stereo not shown) [KJ, 3-(2-adamantylamino)-2-hydroxy-1-propanesulfonic acid] | +++ (60-100% binding=(+++))
O=S(=O)(O)CCCCNC1CCCCC1 [LK, 4-(cyclohexylamino)-1-butanesulfonic acid] | ++ (40-59% binding=(++))
CC(CCNC1CCCCC1)S(=O)(=O)O (stereo not shown) [KM, 4-(cyclohexylamino)-2-butanesulfonic acid] | +++ (60-100% binding=(+++))
CC(C)(C)NCCS(=O)(=O)O [KS] | +++ (60-100% binding=(+++))
O=S(=O)([O-])CC(O)CNC12CC3CC(CC(C3)C1)C2.[Na+] (stereo not shown) [KB, 4-(adamantan-1-ylamino)-2-hydroxy-1-propanesulfonic acid] | +++ (60-100% binding=(+++))
CC(CCNCc1ccccc1)S(=O)(=O)[O-].[Na+] (stereo not shown) [JP, 4-(benzylamino)-2-butanesulfonic acid, sodium salt] | +++ (60-100% binding=(+++))
CC(C)(C)NCC(O)CS(=O)(=O)O (stereo not shown) [JV, 3-(tert-butylamino)-2-hydroxy-1-propanesulfonic acid] | ++ (40-59% binding=(++))
O=S(=O)(O)CCCCNC1C2CC3CC(C2)CC1C3 (stereo not shown) [LN, 4-(2-adamantyl)amino-1-butanesulfonic acid] | +++ (60-100% binding=(+++))

Same assay, conditions: Table 3D; 40 μM Aβ peptide, 400 μM compound (so in the source)

MS binding IAPP | Compound
+ (20-39% binding=(+)) | O=S(=O)(O)CCCN1CCc2ccc(Br)cc2C1 [IN]
+ (20-39% binding=(+)) | O=S(=O)(O)CCCN1CCc2c(I)cccc2C1 [IP]
+ (20-39% binding=(+)) | O=S(=O)(O)CCCN1CCc2c(Br)cccc2C1 [IK]
− (<20%=(−)) | O=S(=O)([O-])CCC[n+]1ccn(CCCS(=O)(=O)O)c1 [HP]
− (<20%=(−)) | O=S(=O)(O)CCCn1cc[n+](CCCS(=O)(=O)O)c1 [HS]
− (<20%=(−)) | Nc1ccc2c(c1)CN(CCCS(=O)(=O)O)CC2 [IM]
+ (20-39% binding=(+)) | COC(=O)[C@@H](Cc1ccc(I)cc1)NCCCS(=O)(=O)O [IB]
+ (20-39% binding=(+)) | Nc1cccc2c1CCN(CCCS(=O)(=O)O)C2 [IH]
+ (20-39% binding=(+)) | O=C(NCCCCS(=O)(=O)O)OCc1ccccc1 [KV]
+ (20-39% binding=(+)) | O=[N+]([O-])c1ccc2c(c1)CN(CCCS(=O)(=O)O)CC2 [IL]
+ (20-39% binding=(+)) | O=[N+]([O-])c1cccc2c[n+](CCCS(=O)(=O)[O-])ccc12 [IJ]

Second part, the molecule before the results:

Compound | MS binding IAPP
CC(=O)N(C(C)=O)c1cccc2c[n+](CCCS(=O)(=O)[O-])ccc12 [II] | − (<20%=(−))
Nc1ccc2[nH]c3c(c2c1)CCN(CCCCS(=O)(=O)O)C3 [KW] | + (20-39% binding=(+))
O=S(=O)(O)CCCCN1CCc2c([nH]c3ccc(Br)cc23)C1 [KX] | + (20-39% binding=(+))
NCCCCCS(=O)(=O)O [LP] | +++ (75-100% binding=(+++))
O=[N+]([O-])c1ccc2[nH]c3c(c2c1)CCN(CCCS(=O)(=O)O)C3 [IT] | + (20-39% binding=(+))
[N-]=[N+]=NCCCS(=O)(=O)O [HN] | − (<20%=(−))
O=C(O)CNCCCS(=O)(=O)O [HZ] | − (<20%=(−))
NCCCCC(NCCCS(=O)(=O)O)C(=O)O (stereo not shown) [HY] | − (<20%=(−))
C[N+](C)(CCCS(=O)(=O)[O-])CCCS(=O)(=O)O [IF] | − (<20%=(−))
O=S(=O)(O)CCCn1cc[n+](CCCn2ccnc2)c1 [HW] | − (<20%=(−))
O=[N+]([O-])c1ccc2[nH]c3c(c2c1)CCN(CCCCS(=O)(=O)O)C3 [KY] | + (20-39% binding=(+))
O=C(O)c1ccc2[nH]c3c(c2c1)CCN(CCCCS(=O)(=O)O)C3 [LA] | − (<20%=(−))
O=S(=O)(O)CCCN/C=C\NCCCS(=O)(=O)O [HX] | − (<20%=(−))
O=S(=O)(O)CCCN1CCc2c([nH]c3ccc(Br)cc23)C1 [IR] | + (20-39% binding=(+))
O=C(O)c1ccc2[nH]c3c(c2c1)CCN(CCCS(=O)(=O)O)C3 [IU] | − (<20%=(−))
